Peptide text beside a SMILES is read from it. A value given as a limit tells only on which side of the number the result lay.

In one series the test system is HIV-1.
Test: not given
Particulars: cited from earlier work.
For the molecule nonoxynol-9 [N-9], the “in vitro inactivation of HIV-1” value was “shown to inactivate in vitro”.

Another series has as its system HSV-2.
Test: not given
Particulars: cited from earlier work.
nonoxynol-9 [N-9]: the “in vitro inactivation of HSV-2” value is “shown to inactivate in vitro”.

For a further series, the system named is HIV-1. As to the kind of experiment: disintegration of HIV-1 measured by release of p24. Also noted: species or system HIV-1 IIIB. The note with it: 5 minutes at 37° C. How it is done: With respect of FIG. 3, serial dilutions of untreated and treated HIV-1 were tested for p24 by ELISA. As a positive control, HIV-1 treated with the detergent NP40 was also tested. The results obtained with the "[…]"-glycerol formulation containing PVP and Crospovidone and N-40 were identical and indicated an 100-fold increase of released p24 antigen, as compared to background levels corresponding to untreated virus. The infectivity of HIV-1 was also eliminated by treatment with the "[…]"-glycerol formulation containing PVP and Crospovidone.
To determine whether or not the CAP Formulations affect the integrity of HIV-1, a preparation of purified virus (strain IIIB; 5 μl; 1.52×10^10 virus particles/ml; Advanced Biotechnologies, Columbia, Md.) was mixed with 45 μl of 0.14 M NaCl and 50 μl of the respective CAP Formulation, each prewarmed to 37° C. After 5 minutes at 37° C., 400 μl of 0.14 M NaCl were added, and the mixture was filtered through a 0.45μ filter prewashed with 0.14 M NaCl, 0.01 M Tris pH 7.2, 0.02 NaN3 (TS). Serial 5-fold dilutions of the filtrate were tested by ELISA for the p24 antigen, as described above. In control experiments, either untreated HIV-1 IIIB or virus treated with the detergent NP40 (final concentration 5 mg/ml; 5 minutes at 37° C.) were equally diluted and tested for the p24 antigen. […]
With NP40, the “increase of released p24 antigen compared to untreated virus” value is on record as 100 fold.

Tested on in another series: not given
Test: not given
Particulars: some N-9 formulations; cited from earlier work.
Take nonoxynol-9 [N-9]: the clinical adverse effects result is reported as “adverse effects”.

The next series has as its system Chlamydia trachomatis.
Test: not given
Particulars: cited from earlier work.
Turning to nonoxynol-9 [N-9], the “in vitro inactivation of Chlamydia trachomatis” value is on record as “shown to inactivate in vitro”.

The next series has as its system heterosexual HIV-1, gonorrhea and chlamydia transmission.
Test: not given
Particulars: one of the N-9 formulations; cited from earlier work.
In the case of nonoxynol-9 [N-9], the “efficacy in decreasing rate of heterosexual HIV-1, gonorrhea and chlamydia transmission” value is given as “lack of efficacy”.

In a further series the test system is HIV-1. As to the kind of experiment: inhibition of fusion between HIV-1 IIIB infected H9 cells and uninfected MT-2 cells. It is filed as cell-based. Particulars: Human immunodeficiency virus 1, MT2, 1 h, read-out: Inhibition of Cell Fusion ED50 ± SD (effective dose for 50% inhibition of HIV-1 induced cell fusion); Table 1A; -- = none at 1000 μg/ml.
Turning to `CC1=CC(=O)NS(=O)(=O)O1` [Acesulfame Potassium], the IC50 is over 1000 µg/mL. Same read-out and setting: the figure for `CCCCCCCCCCCCCCCC(=O)OC[C@H](O)[C@H]1OC(=O)C(O)=C1O` [Ascorbyl Palmitate] is over 1000 µg/mL.

With `COC(=O)[C@H](Cc1ccccc1)NC(=O)[C@@H](N)CC(=O)O` [Aspartame] (HELM PEPTIDE1{D.F.[CO[*:1]]}$$$$V2.0), the IC50 was over 1000 µg/mL.

For `O=C(OCc1ccccc1)c1ccccc1` [Benzyl Benzoate], the IC50 is over 1000 µg/mL.

In the case of `O=[N+]([O-])C(Br)(CO)CO` [Bronopol], the IC50 is over 1000 µg/mL. Still for that read-out and setting: next, `Cc1cc(C(C)(C)C)c(O)c(C(C)(C)C)c1` [Butylated Hydroxytoluene]: over 1000 µg/mL; `CCCCOC(=O)c1ccc(O)cc1` [Butylparaben]: over 1000 µg/mL. `Cc1cc(O)ccc1Cl` [Chlorocresol]: the IC50 is over 1000 µg/mL.

With `CCCCOC(=O)CCCCCCCCC(=O)OCCCC` [Dibutyl Sebacate], the IC50 was over 1000 µg/mL. On the same count and under the same terms, the figure for `CCOC(=O)c1ccc(O)cc1` [Ethylparaben] is over 1000 µg/mL; for `O=C(NCNC(=O)NC1C(=O)NC(=O)N1CO)NC1C(=O)NC(=O)N1CO` (centres unmarked) [Imidurea] it is over 1000 µg/mL. As for `Cc1occc(=O)c1O` [Maltol], the IC50 is over 1000 µg/mL. Turning to `CC1CCC(C(C)C)C(O)C1` (centres unmarked) [Menthol], the IC50 is over 1000 µg/mL. Still for that read-out and setting: the figure for `COC(=O)c1ccc(O)cc1` [Methylparaben] is over 1000 µg/mL; for `CCCOC(=O)c1cc(O)c(O)c(O)c1` [Propyl Gallate] it is over 1000 µg/mL; for `CC1COC(=O)O1` (centres unmarked) [Propylene Carbonate] it is over 1000 µg/mL.

Regarding `CCCOC(=O)c1ccc(O)cc1` [Propylparaben], the IC50 was over 1000 µg/mL.

As for `O=C1NS(=O)(=O)c2ccccc21` [Saccharin], the IC50 is over 1000 µg/mL.

Turning to `O=S(=O)(O)NC1CCCCC1` [Sodium Cyclamate], the IC50 was over 1000 µg/mL. As for `CCCCCCCCCCCCCCCCCCOC(=O)/C=C/C(=O)[O-].[Na+]` [Sodium Stearyl Fumarate], the IC50 is over 1000 µg/mL.

Take `C/C=C/C=C/C(=O)O` [Sorbic Acid]: the IC50 was over 1000 µg/mL.

In the case of `CC(=O)OCC(COC(C)=O)OC(C)=O` [Triacetin], the IC50 was over 1000 µg/mL. On the same count and under the same terms, the figure for `COc1cc(C=O)ccc1O` [Vanillin] is over 1000 µg/mL.

The values above are taken from patent publication US6165493A, “"Methods and compositions for decreasing the frequency of HIV, herpesvirus and sexually transmitted bacterial infections"” (New York Blood Center, Inc., priority 1998, dated 2000).
